Measured values published in ChEMBL document CHEMBL3774317, “Design and synthesis of novel tamoxifen analogues that avoid CYP2D6 metabolism” (Eur J Med Chem, 2016).

How the values were obtained:
MDA-MB-435 = assay: Cytotoxicity against human MDA-MB-435 cells assessed as cell growth at 10^-6 M after 48 hrs by SRB assay; assay type: functional; conditions: MDA-MB-435, 48 h, read-out: Activity
[1] = Cytotoxicity against human COLO205 cells assessed as cell growth at 10^-4 M after 48 hrs by SRB assay; assay type: functional; conditions: COLO 205, 48 h, read-out: Activity
[2] = Cytotoxicity against human HOP92 cells assessed as cell growth at 10^-4 M after 48 hrs by SRB assay; assay type: functional; conditions: HOP-92, 48 h, read-out: Activity
A549 = assay: Cytotoxicity against human A549 cells assessed as cell growth at 10^-7 M after 48 hrs by SRB assay; assay type: functional; conditions: A549, 48 h, read-out: Activity
NCI-H522 = assay: Cytotoxicity against human NCI-H522 cells assessed as cell growth at 10^-4 M after 48 hrs by SRB assay; assay type: functional; conditions: NCI-H522, 48 h, read-out: Activity
[3] = Cytotoxicity against human HOP92 cells assessed as cell growth at 10^-6 M after 48 hrs by SRB assay; assay type: functional; conditions: HOP-92, 48 h, read-out: Activity
[4] = Cytotoxicity against human SF539 cells assessed as cell growth at 10^-4 M after 48 hrs by SRB assay; assay type: functional; conditions: SF-539, 48 h, read-out: Activity
[5] = Cytotoxicity against human NCI-ADR-RES cells assessed as cell growth at 10^-6 M after 48 hrs by SRB assay; assay type: functional; conditions: read-out: Activity
[6] = Cytotoxicity against human DU145 cells assessed as cell growth at 10^-7 M after 48 hrs by SRB assay; assay type: functional; conditions: DU-145, 48 h, read-out: Activity
[7] = Cytotoxicity against human SNB19 cells assessed as cell growth at 10^-8 M after 48 hrs by SRB assay; assay type: functional; conditions: SNB-19, 48 h, read-out: Activity
M14 = assay: Cytotoxicity against human M14 cells assessed as cell growth at 10^-8 M after 48 hrs by SRB assay; assay type: functional; conditions: M14, 48 h, read-out: Activity
[8] = Cytotoxicity against human SF539 cells assessed as cell growth at 10^-5 M after 48 hrs by SRB assay; assay type: functional; conditions: SF-539, 48 h, read-out: Activity
[9] = Cytotoxicity against human OVCAR8 cells assessed as cell growth at 10^-8 M after 48 hrs by SRB assay; assay type: functional; conditions: OVCAR-8, 48 h, read-out: Activity
NCI-H226 [10] = assay: Cytotoxicity against human NCI-H226 cells assessed as cell growth at 10^-6 M after 48 hrs by SRB assay; assay type: functional; conditions: NCI-H226, 48 h, read-out: Activity
MCF7 = assay: Cytotoxicity against human MCF7 cells assessed as cell growth at 5 nM after 48 hrs by SRB assay; assay type: functional; conditions: MCF7, 48 h, read-out: Activity
SK-MEL-2 = assay: Cytotoxicity against human SK-MEL-2 cells assessed as cell growth at 5 nM after 48 hrs by SRB assay; assay type: functional; conditions: SK-MEL-2, 48 h, read-out: Activity
NCI-H460 = assay: Cytotoxicity against human NCI-H460 cells assessed as cell growth at 50 uM after 48 hrs by SRB assay; assay type: functional; conditions: NCI-H460, 48 h, read-out: Activity
HT-29 = assay: Cytotoxicity against human HT-29 cells assessed as cell growth at 0.5 uM after 48 hrs by SRB assay; assay type: functional; conditions: HT-29, 48 h, read-out: Activity
[11] = Cytotoxicity against human HOP92 cells assessed as cell growth at 50 uM after 48 hrs by SRB assay; assay type: functional; conditions: HOP-92, 48 h, read-out: Activity
[12] = Cytotoxicity against human Hs 578T cells assessed as cell growth at 5 uM after 48 hrs by SRB assay; assay type: functional; conditions: read-out: Activity
[13] = Metabolic stability in human hepatocytes assessed as remaining parent compound level at 10 uM after 3 hrs by LC/MS analysis; assay type: ADME, cell-based, Hepatocyte; conditions: read-out: Drug metabolism
NCI-H226 [14] = assay: Cytotoxicity against human NCI-H226 cells assessed as cell growth at 0.5 uM after 48 hrs by SRB assay; assay type: functional; conditions: NCI-H226, 48 h, read-out: Activity
[15] = Cytotoxicity against human HCC2998 cells assessed as cell growth at 5 uM after 48 hrs by SRB assay; assay type: functional; conditions: HCC 2998, 48 h, read-out: Activity
[16] = Cytotoxicity against human HCT15 cells assessed as cell growth at 50 uM after 48 hrs by SRB assay; assay type: functional; conditions: HCT-15, 48 h, read-out: Activity
[17] = Cytotoxicity against human LOXIMVI cells assessed as cell growth at 50 uM after 48 hrs by SRB assay; assay type: functional; conditions: LOX IMVI, read-out: Activity

SMILES: C/C(=C(/c1ccc(O)cc1)c1ccc(OCCN2CCCC2)cc1)c1ccccc1
- growth at 1 µM (MDA-MB-435): 87%
- growth at 100 µM [1]: -82%
- growth at 100 µM [2]: -88%
- growth at 0.1 µM (A549): 102%
- growth at 100 µM (NCI-H522): -82%
- growth at 1 µM [3]: 84%
- growth at 100 µM [4]: -86%
- growth at 1 µM [5]: 91%
- growth at 0.1 µM [6]: 96%
- growth at 0.01 µM [7]: 104%
- growth at 0.01 µM (M14): 92%
- growth at 10 µM [8]: -67%
- growth at 0.01 µM [9]: 104%
- growth at 1 µM (NCI-H226 [10]): 91%

SMILES: CCCCCCCCCC(=O)Oc1ccc(/C(=C(/C)c2ccccc2)c2ccc(OCCN3CCCC3)cc2)cc1
- growth at 0.005 µM (MCF7): 45%
- growth at 0.005 µM (SK-MEL-2): 101%
- growth at 50 µM (NCI-H460): -91%
- growth at 0.5 µM (HT-29): 12%
- growth at 50 µM [11]: -75%
- growth at 5 µM [12]: 77%
- remaining at 3 h, 10 µM [13]: 36%
- growth at 0.5 µM (NCI-H226 [14]): 100%
- growth at 5 µM [15]: 90%
- growth at 50 µM [16]: -100%
- growth at 50 µM [17]: -100%
